Test results published in ChEMBL document CHEMBL1201862, “PubChem BioAssay data set” (2004).
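Briefly, cells in 96-well plates were exposed to five compound concentrations for 48 h, and endpoints were estimated by linear interpolation. Here, GI50 denotes the concentration required for 50% inhibition of growth.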 Calls of active or inactive are those of the source. No stated cut-off is given here; in the data, active = GI50 up to about 1.1 µM and inactive = higher.

Columns and labels:
Experiment in all cases: NCI-60 cell line screen, 48 h
[1] = tested on: K562
[2] = tested on: SF-295
[3] = tested on: HOP-92
[4] = tested on: A549
[5] = tested on: NCI-H23
[6] = tested on: SF-539
[7] = tested on: SNB-75
[8] = tested on: MDA-N
[9] = tested on: SNB-19
[10] = tested on: SW-620
[11] = tested on: MOLT-4
[12] = tested on: HCT-116
[13] = tested on: OVCAR-5
[14] = tested on: MCF7
[15] = tested on: TK-10
[16] = tested on: UACC-257
[17] = tested on: HCC 2998
[18] = tested on: Hs-578T
[19] = tested on: NCI-H522
[20] = tested on: RXF 393
[21] = tested on: SK-MEL-2
[22] = tested on: SK-MEL-5
[23] = tested on: CCRF-CEM
[24] = tested on: BT-549
[25] = tested on: OVCAR-4
[26] = tested on: Malme-3M
[27] = tested on: EKVX
[28] = tested on: PC-3
[29] = tested on: HOP-62
[30] = tested on: NCI-H226
[31] = tested on: HT-29
[32] = tested on: COLO 205
[33] = tested on: SR
[34] = tested on: SN12C
[35] = tested on: HCT-15
[36] = tested on: U-251
[37] = tested on: CAKI-1
[38] = tested on: ACHN
[39] = tested on: SF-268
[40] = tested on: HL-60
[41] = tested on: OVCAR-8
[42] = tested on: NCI-H460
[43] = tested on: LOX IMVI
[44] = tested on: 786-0
[45] = tested on: DU-145
[46] = tested on: KM12
[47] = tested on: NCI/ADR-RES
[48] = tested on: SK-MEL-28
[49] = tested on: IGROV-1
[50] = tested on: RPMI-8226
[51] = tested on: M14
[52] = tested on: A498
[53] = tested on: OVCAR-3
[54] = tested on: SK-OV-3
[55] = tested on: T47D
[56] = tested on: UO-31
[57] = tested on: MDA-MB-435
[58] = tested on: UACC-62
[59] = tested on: MDA-MB-231

Cc1cc(S(=O)(=O)Nc2nc(N)n[nH]2)c(SCC(=O)O)cc1Cl
GI50 [1]: > 10 µM (inactive) | GI50 [2]: > 10 µM (inactive) | GI50 [3]: > 10 µM (inactive) | GI50 [4]: > 10 µM (inactive) | GI50 [5]: > 10 µM (inactive) | GI50 [6]: > 10 µM (inactive) | GI50 [7]: > 10 µM (inactive) | GI50 [8]: > 10 µM (inactive) | GI50 [9]: > 10 µM (inactive) | GI50 [10]: > 10 µM (inactive) | GI50 [11]: > 10 µM (inactive) | GI50 [12]: > 10 µM (inactive) | GI50 [13]: > 10 µM (inactive) | GI50 [14]: > 10 µM (inactive) | GI50 [15]: > 10 µM (inactive) | GI50 [16]: > 10 µM (inactive) | GI50 [17]: > 10 µM (inactive) | GI50 [18]: > 10 µM (inactive) | GI50 [19]: > 10 µM (inactive) | GI50 [20]: > 10 µM (inactive) | GI50 [21]: > 10 µM (inactive) | GI50 [22]: > 10 µM (inactive) | GI50 [23]: > 10 µM (inactive) | GI50 [24]: > 10 µM (inactive) | GI50 [25]: > 10 µM (inactive) | GI50 [26]: > 10 µM (inactive) | GI50 [27]: > 10 µM (inactive) | GI50 [28]: > 10 µM (inactive) | GI50 [29]: > 10 µM (inactive) | GI50 [30]: > 10 µM (inactive) | GI50 [31]: > 10 µM (inactive) | GI50 [32]: > 10 µM (inactive) | GI50 [33]: > 10 µM (inactive) | GI50 [34]: > 10 µM (inactive) | GI50 [35]: > 10 µM | GI50 [36]: > 10 µM (inactive) | GI50 [37]: > 10 µM (inactive) | GI50 [38]: > 10 µM (inactive) | GI50 [39]: > 10 µM (inactive) | GI50 [40]: > 10 µM (inactive) | GI50 [41]: > 10 µM (inactive) | GI50 [42]: > 10 µM (inactive) | GI50 [43]: > 10 µM (inactive) | GI50 [44]: > 10 µM (inactive) | GI50 [45]: > 10 µM (inactive) | GI50 [46]: > 10 µM (inactive) | GI50 [47]: > 10 µM (inactive) | GI50 [48]: > 10 µM (inactive) | GI50 [49]: > 10 µM (inactive) | GI50 [50]: > 10 µM (inactive) | GI50 [51]: > 10 µM (inactive) | GI50 [52]: > 10 µM (inactive) | GI50 [53]: > 10 µM (inactive) | GI50 [54]: > 10 µM (inactive) | GI50 [55]: > 10 µM (inactive) | GI50 [56]: > 10 µM (inactive)

NC(=O)N/N=C/c1ccccc1O
GI50 [1]: > 100 µM (inactive) | GI50 [2]: > 100 µM (inactive) | GI50 [3]: > 100 µM (inactive) | GI50 [5]: > 100 µM (inactive) | GI50 [6]: > 100 µM (inactive) | GI50 [7]: > 100 µM (inactive) | GI50 [9]: > 100 µM (inactive) | GI50 [10]: > 100 µM (inactive) | GI50 [11]: > 100 µM (inactive) | GI50 [12]: > 100 µM (inactive) | GI50 [57]: > 100 µM (inactive) | GI50 [14]: > 100 µM (inactive) | GI50 [15]: > 100 µM (inactive) | GI50 [16]: > 100 µM (inactive) | GI50 [17]: > 100 µM (inactive) | GI50 [18]: 53.6 µM (inactive) | GI50 [20]: > 100 µM (inactive) | GI50 [21]: > 100 µM (inactive) | GI50 [22]: > 100 µM (inactive) | GI50 [23]: > 100 µM (inactive) | GI50 [24]: > 100 µM (inactive) | GI50 [25]: > 100 µM (inactive) | GI50 [27]: 45 µM (inactive) | GI50 [28]: > 100 µM (inactive) | GI50 [29]: > 100 µM (inactive) | GI50 [30]: > 100 µM (inactive) | GI50 [31]: > 100 µM (inactive) | GI50 [32]: > 100 µM (inactive) | GI50 [33]: > 100 µM (inactive) | GI50 [35]: > 100 µM | GI50 [36]: > 100 µM (inactive) | GI50 [37]: > 100 µM (inactive) | GI50 [38]: > 100 µM (inactive) | GI50 [39]: > 100 µM (inactive) | GI50 [40]: 53.1 µM (inactive) | GI50 [41]: > 100 µM (inactive) | GI50 [58]: > 100 µM (inactive) | GI50 [42]: > 100 µM (inactive) | GI50 [43]: > 100 µM (inactive) | GI50 [44]: > 100 µM (inactive) | GI50 [59]: > 100 µM (inactive) | GI50 [45]: > 100 µM (inactive) | GI50 [46]: > 100 µM (inactive) | GI50 [47]: > 100 µM (inactive) | GI50 [48]: > 100 µM (inactive) | GI50 [49]: > 100 µM (inactive) | GI50 [50]: > 100 µM (inactive) | GI50 [51]: > 100 µM (inactive) | GI50 [52]: > 100 µM (inactive) | GI50 [54]: > 100 µM (inactive) | GI50 [55]: > 100 µM (inactive) | GI50 [56]: > 100 µM (inactive)
